Data as given in patent US10815222B2, “Compounds for use in the treatment of kinetoplastid infection” (C.N.C.C.S. S.c.a.r.l. COLLEZIONE NAZIONALE DEI COMPOSTI …, priority 2016, dated 2020).
Read-outs that look alike come from different tables or passages of the source.

Assays:
HeLa cells = test: HeLa cytotoxicity assay (CellTiter Glo, 72 h); assay type: cell-based; conditions: Homo sapiens, read-out: Cell Proliferation Hela IC50
Description: (§1) HeLa cells (ATCC® CCL2™) in DMEM (Dulbecco Modified Eagle's Medium) without phenol red, Thermo, 11880, USA+10% FBS+1× PenStrep+1× Gln or HUVEC cells (ATCC® CRL1730™) in EBM-2 (Endothelial Growth Basal Medium, Lonza, CC3156)+EGM-2 SingleQuotsTMSupplements and Growth Factors (Lonza, CC4176)+1× Penicyllin-Streptomycin (PenStrep, ThermoFisher)+1× Glutamine, are plated in a 384 well plate (Thermo, 4334-11, USA) to a density of 2000 cells per well and let recover for four hours at 37° C., 5% CO2 in a humidified atmosphere. After the recovery, compounds are transferred to assay plates as per compound preparation method. Assay plates are then incubated at 37° C., 5% CO2 in a humidified atmosphere for 72 hours. Cell viability is measured by the CellTiter Glo (Promega, G8080, USA) as per manufacturer instruction.

HUVEC cells = test: HUVEC cytotoxicity assay (CellTiter Glo, 72 h); assay type: cell-based; conditions: Homo sapiens, read-out: Cell Proliferation HUVEC IC50
Description: as §1

[1] = PK studies: plasma exposure and pharmacokinetic parameters after i.v., oral and i.p. administration; assay type: in vivo, C57BL/6 mice
Description: C57BL/6 mice were used to evaluate plasma exposure and pharmacokinetic parameters after intravenous, oral and intraperitoneal administration (5, 10, 30 mpk). In each animal an indwelling cannula was implanted in the right jugular vein for blood sampling. The surgery was performed under light anaesthesia (Ketamine-Xilazine (85 mg/kg and 2.5 mg/kg respectively i.m.) one day prior the experiment). During the kinetic study, all animals were housed individually in plastic metabolism cages, and were unrestrained throughout the experiment. Compounds (6 mg/mL) were dissolved in PEG400/H2O (50/50). After an overnight fast, the mice (15 animals per experiment) received an i.v. (via caudal vein) or an oral dose of the compound. Blood samples were collected at different times point after dosing. Plasma was separated immediately after blood sampling by centrifugation, and the plasma samples were kept frozen (−20° C.) until assayed by LC/MS/MS.
Analytical procedures: Plasma samples were extracted using Liquid Handling Robot MultiProbe Packard by protein precipitation with acetonitrile. Then the samples were centrifuged (3000 rpm×15 min at 4° C.) and the supernatant transferred and dried under nitrogen. The samples were reconstituted in water/acetonitrile 90/10 and then injected directly into an HPLC column. Sample analyses were performed using a an API 3000 or/and API 2000 or/and API 4000 Mass Spectrometer interfaced via the Turbo Ion Spray (ESI)/APCI to an LC system consisting of an HTS PAL CTC autosampler and an Agilen HP 1100 Binary Pump. The results are calculated using Analyst Software linear regression with 1/x*x weighting. The Assay Precision was calculated for the Quality Controls by Watson Lims database.
Pharmacokinetic Analysis: The plasma clearance (CLp) of the compounds were calculated (using Watson PK program) as the dose divided by the area under the plasma concentration-time curve from time zero to infinity (AUC0-∞). The apparent half-life was estimated from the slope of the terminal phase of the log plasma concentration-time data. The volume of distribution (Vdss) was determined using the following noncompartmental method: Vdss=(Dose IV×AUMC)/(AUC0-∞)2 where AUMC is the total area under the first moment of the drug concentration time curve from time zero to infinity. Bioavailability was estimated as the AUC0-∞ ratio following oral and intravenous administration, normalized for differences in dose.

[2] = tested on: Bloodstream form of Trypanosoma brucei, strain Lister 427; test: Trypanosoma brucei growth inhibition assay (CellTiter-Glo, 24 h); assay type: cell-based; conditions: Trypanosoma brucei
Method in brief: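 Bloodstream-form T. brucei Lister 427, 1500 parasites per well in supplemented IMDM with 10% FBS, were exposed to compound (DMSO ≤0.25% final) for 24 h at 37 °C. Viability was measured by CellTiter-Glo luminescence.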

For `COc1nc2ccccc2cc1-c1cnc(C2CN(CC3CCOC3)CCN2C(=O)Cn2c(C(F)(F)F)nc3ccccc32)[nH]1` (stereo not shown) [1-(2-(5-(2-methoxyquinolin-3-yl)-1H-imidazol-2-yl)-4-((tetrahydrofuran-3-yl)methyl)piperazin-1-yl)-2-(2-(trifluoromethyl)-1H-benzo[d]imidazol-1-yl)ethan-1-one], the IC50 (HeLa cells) was 21.5 µM, the IC50 (HUVEC cells) was 14.1 µM and the clearance ([1]; C57BL/6, intravenous, 5 mpk, mouse, plasma clearance) was 44.7 mL/min/kg. The AUC ([1]; C57BL/6, mouse, plasma, oral, 10 mpk) was 4.6 µM·h, the bioavailability ([1]; C57BL/6, plasma, 10 mg/kg, mouse, 10 mpk, po, single oral dose, read-out: Oral Bioavailability F %) was 78% and the “i.p. max brain concentration” value ([1]; mouse, after intraperitoneal injection (30 mpk), brain) was 190 nM. The EC50 ([2]; T. Brucei Growth Inibition Assay, class symbols, read-out: T. Brucei GI EC50) was less than 0.1 µM, the EC50 ([2]; Table 3, read-out: T. brucei GI EC50) was 0.0299 µM and the EC50 ([2]; Table 4, read-out: T. brucei Growth inhibition EC50) was 0.03 µM. For the same compound, the EC90 ([2]; Table 4, read-out: T. brucei Growth inhibition EC90) was 0.287 µM.
